Source: the supplement of paper PMC10307832

Compound: C1=CC2=C(C=C(C(=C2N=C1)O)N=NC3=CC4=C(C=C3)C=C(C=C4)S(=O)(=O)O)S(=O)(=O)O + C[C@@H](Oc1cc(-c2cnn(C3CCNCC3)c2)cnc1N)c1c(Cl)ccc(F)c1Cl [Crizotinib] (partner 1 µM)
Experiment: relative viability (nuclei count vs DMSO), 5 days (fraction); higher = more cells survive
Conditions: first compound 0.08 µM
Method in brief: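 Relative viability is defined as nuclei in treated wells over nuclei in vehicle wells. Duplicate plates were run and medians reported. Lung cancer cell lines in 1536-well plates were dosed by pin tool one day after seeding, with one drug or with a fixed anchor-drug dose plus five library-drug doses (not always all listed) in √10 steps, and nuclei were counted after 5 days.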

Row | Cell Line | relative viability
1 | NCI-H2085 | 0.956
2 | Calu-6 | 0.96
3 | HCC-366 | 0.759
4 | NCI-H1666 | 1.22
5 | NCI-H596 | 1.13
6 | LK-2 | 0.275
7 | NCI-H2087 | 1.04
8 | SK-MES-1 | 0.96
9 | H3255 | 0.842
10 | COR-L23 | 0.653
11 | COR-L 105 | 0.999
12 | IA-LM | 1.16
13 | LOU-NH91 | 0.765
14 | ChaGo-K-1 | 1.12
15 | NCI-H2170 | 1.38
16 | NCI-H2405 | 0.927
17 | HOP-62 | 1.14
18 | HCC-44 | 0.935
19 | A549 | 0.909
20 | LU99A | 0.626
21 | NCI-H441 | 0.762
22 | NCI-H1299 | 0.892

Same assay, conditions: first compound 0.253 µM

Row | Cell Line | relative viability
23 | NCI-H727 | 0.76
24 | NCI-H1650 | 0.894
25 | EBC-1 | 0.197
26 | NCI-H1703 | 0.717
27 | NCI-H1993 | 0.904
28 | SW 1573 | 0.78
29 | NCI-H838 | 0.734
30 | LCLC-103H | 1.02
31 | NCI-H520 | 0.808
32 | NCI-H2126 | 0.937
33 | EMC-BAC-2 | 0.751
34 | NCI-H2085 | 0.891
35 | Calu-6 | 0.761
36 | HCC-366 | 0.445
37 | NCI-H1666 | 0.949
38 | NCI-H596 | 1.02
39 | LK-2 | 0.223

Row | Cell Line | relative viability
40 | NCI-H2087 | 0.952
41 | SK-MES-1 | 0.886
42 | H3255 | 1.02
43 | COR-L23 | 0.63
44 | COR-L 105 | 0.71
45 | IA-LM | 0.602
46 | LOU-NH91 | 0.704
47 | ChaGo-K-1 | 1.16
48 | NCI-H2170 | 1.1
49 | NCI-H2405 | 0.806
50 | HOP-62 | 0.725
51 | HCC-44 | 0.767
52 | A549 | 0.738
53 | LU99A | 0.605
54 | NCI-H441 | 0.672
55 | NCI-H1299 | 0.971

Same assay, conditions: first compound 0.8 µM

Row | Cell Line | relative viability
56 | NCI-H727 | 0.798
57 | NCI-H1650 | 0.962
58 | EBC-1 | 0.197
59 | NCI-H1703 | 0.526
60 | NCI-H1993 | 0.864
61 | SW 1573 | 0.836
62 | NCI-H838 | 0.848
63 | LCLC-103H | 0.978
64 | NCI-H520 | 0.802
65 | NCI-H2126 | 0.993
66 | EMC-BAC-2 | 0.704
67 | NCI-H2085 | 0.855
68 | Calu-6 | 0.763
69 | HCC-366 | 0.404
70 | NCI-H1666 | 0.95
71 | NCI-H596 | 0.921
72 | LK-2 | 0.244

Row | Cell Line | relative viability
73 | NCI-H2087 | 0.957
74 | SK-MES-1 | 0.963
75 | H3255 | 0.834
76 | COR-L23 | 0.572
77 | COR-L 105 | 0.797
78 | IA-LM | 0.822
79 | LOU-NH91 | 0.739
80 | ChaGo-K-1 | 1.13
81 | NCI-H2170 | 1.15
82 | NCI-H2405 | 0.808
83 | HOP-62 | 0.701
84 | HCC-44 | 0.807
85 | A549 | 0.754
86 | LU99A | 0.521
87 | NCI-H441 | 0.631
88 | NCI-H1299 | 0.933

Same assay, conditions: first compound 2.53 µM

Row | Cell Line | relative viability
89 | NCI-H727 | 0.936
90 | NCI-H1650 | 1.15
91 | EBC-1 | 0.183
92 | NCI-H1703 | 0.559
93 | NCI-H1993 | 0.797
94 | SW 1573 | 0.85
95 | NCI-H838 | 0.943
96 | LCLC-103H | 1.07
97 | NCI-H520 | 0.692
98 | NCI-H2126 | 1.03
99 | EMC-BAC-2 | 0.806
100 | NCI-H2085 | 0.85
101 | Calu-6 | 0.817
102 | HCC-366 | 0.618
103 | NCI-H1666 | 1.06
104 | NCI-H596 | 0.899
105 | LK-2 | 0.218

Row | Cell Line | relative viability
106 | NCI-H2087 | 0.694
107 | SK-MES-1 | 1
108 | H3255 | 0.669
109 | COR-L23 | 0.671
110 | COR-L 105 | 0.881
111 | IA-LM | 0.757
112 | LOU-NH91 | 0.79
113 | ChaGo-K-1 | 1.21
114 | NCI-H2170 | 1.23
115 | NCI-H2405 | 0.847
116 | HOP-62 | 1.09
117 | HCC-44 | 0.819
118 | A549 | 0.694
119 | LU99A | 0.57
120 | NCI-H441 | 0.714
121 | NCI-H1299 | 0.943

Same assay, conditions: first compound 8 µM

Row | Cell Line | relative viability
122 | NCI-H727 | 0.772
123 | NCI-H1650 | 1.01
124 | EBC-1 | 0.162
125 | NCI-H1703 | 0.735
126 | NCI-H1993 | 0.896
127 | SW 1573 | 0.742
128 | NCI-H838 | 0.811
129 | LCLC-103H | 1.06
130 | NCI-H520 | 0.869
131 | NCI-H2126 | 1.01
132 | EMC-BAC-2 | 0.757
133 | NCI-H2085 | 0.725
134 | Calu-6 | 0.821
135 | HCC-366 | 0.46
136 | NCI-H1666 | 0.946
137 | NCI-H596 | 0.898
138 | LK-2 | 0.162

Row | Cell Line | relative viability
139 | NCI-H2087 | 0.833
140 | SK-MES-1 | 0.948
141 | H3255 | 0.874
142 | COR-L23 | 0.502
143 | COR-L 105 | 0.717
144 | IA-LM | 0.9
145 | LOU-NH91 | 0.717
146 | ChaGo-K-1 | 1.12
147 | NCI-H2170 | 1.2
148 | NCI-H2405 | 0.869
149 | HOP-62 | 1.02
150 | HCC-44 | 0.859
151 | A549 | 0.754
152 | LU99A | 0.574
153 | NCI-H441 | 0.601
154 | NCI-H1299 | 0.988
